# Patent US20240349768A1, “SWEETENER BLEND COMPRISING THAUMATIN AND ONE OR MORE REBAUDIOSIDE” (NOMAD BIOSCIENCE GMBH, priority 2021, published 2024)
# Columns and labels:
# test panelists [1] = assay: Round table evaluation of sweetness intensity (SEV) against sucrose reference samples; assay type: in vivo; conditions: 7 panelists, mean
# Experimental: Round table evaluations were performed with 7 test panelists. Equal sweet 5 SEV concentrations in neutral pH water were made for Thaumatin II (purity greater than 90%), Rebaudioside A, and Rebaudioside M. These equal sweet solutions were also mixed at 50% of Thaumatin II and 50% Reb M or RebA and compared to the individual components. The components of the test compositions are described in the below tables. The mixed compositions were calculated using the Beidler mixture equation for the sweeteners. The Beidler mixture equation for sweeteners is as follows: [formula] The concentration of each component in the mixture in ppm is divided by SEV (c/R) and is plotted against concentration, c. The slope of the linear regression is the maximum SEV (Rmax). The y-intercept of the linear regression multiplied by Rmax is the half-maximal sweetness concentration, 1/K. Rmax and 1/K are the two parameters used in the Beidler equation. Mixtures were tasted in comparison to reference samples for the panelists to determine SEV values. References samples were 3%, 4%, 5%, 6%, 7%, and 8% sucrose in neutral pH water. The test samples were served in 2 ounce soufflé cups (approximately 60 ml) coded with 3-digit codes at room temperature. A two minute wait period between samples was enforced. Water and unsalted crackers was available for the panelists to clear their palates before and during testing. Results were collected for calculating approximate SEV level of each test sample.
# test panelists [2] = assay: Round table qualitative assessment of quality of sweetness and undesirable attributes, scale of 1-10; assay type: in vivo; conditions: for Quality of sweetness (higher better): scale 1-10, 10 = 5% sucrose, 1 = 500 ppm RebA; for Off taste (lower better): scale 1-10, 10 = 500 ppm RebA, 1 = 5% sucrose
# Experimental: Round table evaluations were performed with 7 test panelists. Equal sweet 5 SEV concentrations in neutral pH water were made for Thaumatin II (purity greater than 90%), Rebaudioside A, and Rebaudioside M. These equal sweet solutions were also mixed at 50% of Thaumatin II and 50% Reb M or RebA and compared to the individual components. All solutions were coded and blinded from panelists. Panelists were asked to provide a qualitative assessment on a scale of 1-10 of the quality of sweetness (10 being the highest quality of sweetness) and undesirable attributes (10 being most undesirable) of each solution using a 5% sucrose and 500 ppm RebA solutions as controls. For the quality of sweetness, the score 10 was assigned to 5% sucrose. Vice versa, the score 1 was assigned to and 500 ppm RebA. For undesirable attributes, the scores 10 and 1 were assigned to 500 ppm RebA and 5% sucrose, respectively.
molecule,measurement,setting,value
C=C1C[C@@]23CC[C@H]4[C@@](C)(CCC[C@@]4(C)C(=O)O[C@@H]4O[C@H](CO)[C@@H](O)[C@H](O)[C@H]4O)[C@@H]2CC[C@]1(O[C@@H]1O[C@H](CO)[C@@H](O)[C@H](O[C@@H]2O[C@H](CO)[C@@H](O)[C@H](O)[C@H]2O)[C@H]1O[C@@H]1O[C@H](CO)[C@@H](O)[C@H](O)[C@H]1O)C3 [Rebaudioside A],"Sweetness intensity determined, SEV",test panelists [1]; 260 ppm in neutral pH water,4.8 SEV
same,Quality of sweetness (higher better),test panelists [2]; 260 ppm in neutral pH water,5.6
same,Off taste (lower better),test panelists [2]; 260 ppm in neutral pH water,6.7
C=C1C[C@@]23CC[C@H]4[C@@](C)(CCC[C@@]4(C)C(=O)O[C@@H]4O[C@H](CO)[C@@H](O)[C@H](O[C@@H]5O[C@H](CO)[C@@H](O)[C@H](O)[C@H]5O)[C@H]4O[C@@H]4O[C@H](CO)[C@@H](O)[C@H](O)[C@H]4O)[C@@H]2CC[C@]1(O[C@@H]1O[C@H](CO)[C@@H](O)[C@H](O[C@@H]2O[C@H](CO)[C@@H](O)[C@H](O)[C@H]2O)[C@H]1O[C@@H]1O[C@H](CO)[C@@H](O)[C@H](O)[C@H]1O)C3 [Rebaudioside M],"Sweetness intensity determined, SEV",test panelists [1]; 155 ppm in neutral pH water,5.3 SEV
same,Quality of sweetness (higher better),test panelists [2]; 155 ppm in neutral pH water,8.8
same,Off taste (lower better),test panelists [2]; 155 ppm in neutral pH water,2.5
same,"Quality of sweetness and off taste, in words",test panelists [2]; equal sweet 5 SEV solutions and their 50%/50% mixtures in neutral pH water,very mild artificial off taste
"Thaumatin II: oligopeptide or protein of SEQ ID NO: 2; recombinant, purity greater than 90%, purified from transgenic Nicotiana tabacum plants (protein, listed as Thaumatococcus daniellii) ATFEIVNRCSYTVWAAASKGDAALDAGGRQLNSGESWTINVEPGTKGGKIWARTDCYFDDSGRGICRTGDCGGLLQCKRFGRPPTTLAEFSLNQYGKDYIDISNIKGFNVPMDFSPTTRGCRGVRCAADIVGQCPAKLKAPGGGCNDACTVFQTSEYCCTTGKCGPTEYSRFFKRLCPDAFSYVLDKPTTVTCPGSSNYRVTFCPTA","Sweetness intensity determined, SEV",test panelists [1]; 7 ppm in neutral pH water,4.6 SEV
same,Quality of sweetness (higher better),test panelists [2]; 7 ppm in neutral pH water,6.5
same,Off taste (lower better),test panelists [2]; 7 ppm in neutral pH water,4.7
